Laboratory results taken from patent US20260240795A1 (KYOTO P[…] UNIVERSITY CORPORATION, priority 2023, published 2026).

System: AMPK
Assay: AMPK activating activity in HK-2 cells treated with tunicamycin, Western blot
Type: cell-based, human
Details: tunicamycin 5 μg/ml with or without sephin1 1 μM, 24 hours, compared to untreated cells
Procedure: The HK-2 cell line is a proximal tubular cell line derived from normal kidney immortalized by transduction with human papilloma virus 16 (HPV-16) E6/E7 genes.
HK-2 cells were seeded in a six well plate at a cell density of 7×10^4 cells per well 24 hours prior to the start of the study (T−24). […] 24 hours later (at T24) cells were recovered and protein was analyzed by Western blot analysis.

In the case of tunicamycin, the “AMPK levels (AMPK/GAPDH)” value is reported as “reduced”.
